Two compounds from patent US20250241942A1, “METHODS OF SYNTHESIZING CONDUCTIVE POLYMERS IN BIOLOGICAL SYSTEMS AND METHODS OF USING CONDUCTIVE POLYMERS” (Purdue Research Foundation, priority 2024, published 2025) can be followed below.

Where two headings read alike, the source gives them in different places.

A short description of data set [1]: Subcutaneous administration of BDF and n-PBDF solutions in mice, observation and complete blood count. The conditions noted are these: mouse, in vivo, sc. From the text: Furthermore, the non-toxicity of the polymerization process and the resulting polymer was confirmed by subcutaneously administering BDF and n-PBDF solutions in mice. […] The investigations reported below explored the use of n-PBDF to modulate the neural activity of cortical pyramidal neurons in mice acute brain slices, showing the interaction of n-PBDF with the neurons at a cellular level, leading to a decrease in the intrinsic excitability of the neurons. […] These and other aspects of the method will be more fully appreciated from the following discussion of the investigations.

Data set [2] is described as follows: Solubility of BDF monomer. The class given is physicochemical. An excerpt:
Though existing methods of synthesizing n-PBDF are efficient, they are unsuitable within living systems. […] Existing synthesis methods also require high temperatures and employ dimethyl sulfoxide (DMSO) as a solvent. To overcome this limitation, methods were investigated for synthesizing n-PBDF in aqueous media using surfactants, which are also utilized in the synthesis of conductive polymer nanoparticles. […] Using TPGS as a surfactant, n-PBDF can be polymerized in aqueous media through emulsion polymerization. By incorporating an insignificant amount (5%) of DMSO and 1% w/w TPGS, this method was found suitable for use in biological systems, as discussed below.

For another data set, the system named is zebrafish embryos. The experiment in a line: BDF injection into the vasculature of zebrafish embryos, in vivo polymerization and viability. The protocol: Finally, BDF monomer with 1% w/w TPGS in the PBS media solution was injected in the vasculature of 3-day post-fertilization zebrafish embryos to validate the whole blood catalyzed in vivo polymerization of BDF to synthesize n-PBDF. The fish embryos were injected at the end of the tail (FIG. 5A) with different BDF concentrations from 1 mM to 15 mM and kept inside an incubator at 34° C. […] To prevent the misconception of pigmentation in the skin of the embryos as a darkened yolk, zebrafish embryos were treated with 1-phenyl 2-thiourea (PTU). PTU treatment removed the pigment from the skin, allowing for better visualization of the darkening of the embryo's yolk (FIG. 5C). In the case of a 1 mM BDF concentration injection, a clear yolk was observed similar to that seen in control zebrafish embryos. Significant darkening happened when the concentration was increased to 10 mM. Furthermore, 15 mM BDF concentration was injected into the zebrafish embryo, where the yolk was even darker with respect to the 10 mM BDF concentration injection. To characterize the darkened yolk, UV-Vis-NIR measurements were collected on all zebrafish embryos with different concentrations of BDF injections along with the control fish (only PBS injection). […]

The test system of a further data set is red blood cells. The experiment in a line: Hemolysis assay on reaction components. As to conditions: 0.2 mg/mL. The class given is cell-based. The protocol: To evaluate the efficacy of polymerization without the need for constant stirring, a method was employed whereby the solution was placed in an incubator with a rocker at 37° C. Upon introduction of whole blood into the reaction vessel without stirring, a sluggish reaction was observed, and the vessel turned black after three hours into the reaction. […] Based on these observations from the reaction without stirring, it was deduced the lysis of the RBCs with the BDF monomer. To confirm, a hemolysis assay was used on the various reaction components and with different BDF concentrations. […] This explained the initial slow reaction and formation of n-PBDF without stirring.

Another data set deals with A549 lung cancer cells. The format is cell-based. From the text: Because the BDF monomer can lyse the RBCs, the cytotoxicity of the BDF monomer and n-PBDF in A549 lung cancer cells was further studied. It was observed that the n-PBDF polymer is non-toxic to cancer cells, with cell viability remaining close to 100% regardless of the polymer concentration. […] Although the BDF monomer is toxic in cancer cells, it may not impede the in vivo polymerization process, as once the polymerization reaction begins, the toxicity quickly diminishes.

In data set [3] the test system is primary motor cortex (M1). More on the design: species or system mice. The conditions noted are these: mouse, in vivo.

`O=C1Cc2cc3c(cc2O1)CC(=O)O3` [BDF, 3,7-dihydrobenzo[1,2-b:4,5-b′]difuran-2,6-dione]: the “complete blood count (CBC), signs of acute toxicity” value in data set [1] is on record as “no signs of acute toxicity except for a minor level of hemolysis”. Besides, the “physical stress or discomfort” value in data set [1] is “No physical stress or discomfort was observed”. Besides, the “solubility in aqueous media” value in data set [2] (aqueous media) is listed as “insoluble”. For the same compound, the “solubility in organic solvents” value in data set [2] (organic solvents) was “limited solubility”. Also, the embryos alive entry in the data set with zebrafish embryos (after 24 h incubation, BDF 1 mM to 15 mM, 34° C.) is recorded as “at least 80%”. Also, in the data set with zebrafish embryos (zebrafish embryos), the “toxicity of BDF injection and in vivo polymerization” value is given as “almost no toxicity”. In addition, the hemolysis result in the data set with red blood cells was “approximately 40%”. For the same compound, the cell viability entry in the data set on A549 lung cancer cells is recorded as “slightly improved cell viability at higher concentrations”; with A549 lung cancer cells (human, 72 h, 5 μg/mL), “approximately 75%”; with A549 lung cancer cells (human, 72 h, 0.167 mg/mL), “around 10%”.

For “n-doped poly(3,7-dihydrobenzo[1,2-b:4,5-b′]difuran-2,6-dione [n-PBDF]”, in data set [3], the “retention at the injection site” value was “remained in the injection site for extended periods”. Besides, in the data set with A549 lung cancer cells, the cell viability is approximately 100%.
